Test results reported in patent publication US20250351832A1, “PHYTOCHEMICALS AS BIOPESTICIDES AND BIOSTIMULANTS” (KAY BEE BIO ORGANICS PVT. LTD., priority 2024, published 2025).
Read-outs that look alike come from different tables or passages of the source.

What was measured:
[1] = tested on: Cotton Bacterial Leaf Blight (BLB-Xanthomonas citri pv. Malvacearum); assay: Field trial, cotton bacterial leaf blight, Embodiment 12 (Ex. 116); details: for % Increase over control: cotton yield; for % Disease reduction over Control / Yield: cotton
[2] = tested on: Citrus Canker (Xanthomonas citri pv. Citri); assay: Field trial, citrus canker (Ex. 117); details: for % Increase in yield over control / Yield (t/ha): citrus; for Citrus Canker severity, Pre spray: pre spray (baseline)
[3] = tested on: Pomegranate Bacterial Leaf Blight (BLB-Xanthomonas axonopodis pv Punicae); assay: Field trial, pomegranate bacterial leaf blight (Ex. 99); details: for % Increase in yield over control / Yield: pomegranate
[4] = tested on: Helicoverpa armigera; details: Helicoverpa armigera 3rd instar on chickpea plants, dose 1 ml/gm/lit. spray
[5] = tested on: Thrips; assay: whole plant or invertebrate; details: in Gossypium hirsutum, 48 h
[6] = tested on: chili seedlings; assay: Response of chili plants, greenhouse growth (Ex. 31); format: in vivo
[7] = tested on: Spodoptera litura; assay: whole plant or invertebrate; details: 72 h
[8] = tested on: Thrips; details: 48 h, 1 mL or g/L
[9] = tested on: Spodoptera litura; details: Spodoptera litura 3rd instar on cabbage plants, dose 1 ml/gm/lit. spray
[10] = tested on: tomato seedlings; assay: Response of tomato plants, greenhouse growth (Ex. 30); format: in vivo
[11] = tested on: Alternaria alternata; assay: In vitro poisoned food technique against fungus (Ex. 20); format: cell-based; details: […]
[12] = cited from earlier work
[13] = tested on: Aphid
[14] = tested on: Mite; details: mite on okra plants, green house, dose 1 ml/gm/lit. spray
[15] = tested on: Helicoverpa armigera; details: Helicoverpa armigera on okra fruits, dose 1 ml/gm/lit., 72 Hrs.
[16] = tested on: Thrips
[17] = tested on: Mealy Bug; details: Mealy Bug on cotton leaves, dose 1 ml/gm/lit., 48 Hrs.
[18] = tested on: Mite; details: Dose 1 ml/gm/lit.; 48 hrs
[19] = tested on: Mealy Bug; details: mealy bug on cotton plants, green house, dose 1 ml/gm/lit. spray
[20] = tested on: Aphid; assay: whole plant or invertebrate; details: 48 h
[21] = tested on: Spodoptera litura; details: 72 h, 1 mL or g/L
[22] = tested on: Aphid; details: 48 h, 1 mL or g/L
[23] = 72 hrs, corrected for water control
[24] = read-out: % Corrected Mortality at 48 Hrs.
[25] = read-out: % Mortality at 48 Hrs.
[26] = chili seedlings, dose 1 ml/gm/lit, 10th day
[27] = tomato seedlings, 10th day, dose 1 ml/gm/lit
[28] = tomato seedlings, dose 1 ml/gm/lit, 10th day
[29] = Table 13, descriptive, no test described
[30] = 48 hrs, corrected for water control

## O=[N+]([O-])C(Br)(CO)CO [Bronopol]
[1]; 1st spray, 5th Day, dose 500 ppm
  cotton BLB severity: 31.33
[1]; 1st spray, 10th Day, dose 500 ppm
  cotton BLB severity: 27.10
[1]; 2nd spray, 5th Day, dose 500 ppm
  cotton BLB severity: 25.60
[1]; 2nd spray, 10th Day, dose 500 ppm
  cotton BLB severity: 23.60
[1]; dose 500 ppm
  % Increase over control: 13.79%
  % Disease reduction over Control: 66.38%
  Yield: 20.30 qtl/ha
[2]; dose 500 ppm
  % Disease reduction over Control: 72.62%
  Citrus Canker severity, 1st spray 5rd Day: 38.48
  Citrus Canker severity, 1st spray 10th day: 33.15
  Citrus Canker severity, 2nd spray 5rd day: 27.45
  Citrus Canker severity, 2nd spray 10th Day: 22.45
  % Increase in yield over control: 3.61%
  Yield (t/ha): 8.30 t/ha
  Citrus Canker severity, Pre spray: 41.75
[3]; dose 500 ppm
  % Disease reduction over Control: 66.68%
  BLB severity 1st spray 3rd Day: 36.68
  BLB severity 1st spray 5th day: 32.15
  BLB severity 2nd spray 3rd Day: 28.75
  BLB severity 2nd spray 5th Day: 26.65
  % Increase in yield over control: 10.36%
  Yield: 10.55 t/ha

## [Cu+2].[OH-].[OH-] [Copper Hydroxide]
[1]; 1st spray, 5th Day, dose 0.30%
  cotton BLB severity: 31.00
[1]; 1st spray, 10th Day, dose 0.30%
  cotton BLB severity: 29.75
[1]; 2nd spray, 5th Day, dose 0.30%
  cotton BLB severity: 27.45
[1]; 2nd spray, 10th Day, dose 0.30%
  cotton BLB severity: 26.45
[1]; dose 0.30%
  % Increase over control: 7.89%
  % Disease reduction over Control: 62.32%
  Yield: 19.00 qtl/ha
[2]; dose 0.30%
  % Disease reduction over Control: 70.60%
  Citrus Canker severity, 1st spray 5rd Day: 37.65
  Citrus Canker severity, 1st spray 10th day: 33.15
  Citrus Canker severity, 2nd spray 5rd day: 28.10
  Citrus Canker severity, 2nd spray 10th Day: 24.10
  % Increase in yield over control: 13.98%
  Yield (t/ha): 9.30 t/ha
  Citrus Canker severity, Pre spray: 41.45
[3]; dose 0.30%
  % Disease reduction over Control: 61.56%
  BLB severity 1st spray 3rd Day: 35.45
  BLB severity 1st spray 5th day: 33.15
  BLB severity 2nd spray 3rd Day: 31.2
  BLB severity 2nd spray 5th Day: 30.75
  % Increase in yield over control: 16.42%
  Yield: 11.13 t/ha

## [Cl-].[Cu+2].[Cu+2].[OH-].[OH-].[OH-] [Copper oxychloride]
[1]; 1st spray, 5th Day, dose 0.25%
  cotton BLB severity: 30.00
[1]; 1st spray, 10th Day, dose 0.25%
  cotton BLB severity: 28.45
[1]; 2nd spray, 5th Day, dose 0.25%
  cotton BLB severity: 23.65
[1]; 2nd spray, 10th Day, dose 0.25%
  cotton BLB severity: 21.36
[1]; dose 0.25%
  % Increase over control: 5.41%
  % Disease reduction over Control: 69.57%
  Yield: 18.50 qtl/ha
[3]; dose 0.25%
  % Disease reduction over Control: 67.92%
  BLB severity 1st spray 3rd Day: 36.65
  BLB severity 1st spray 5th day: 30.15
  BLB severity 2nd spray 3rd Day: 26.14
  BLB severity 2nd spray 5th Day: 25.66
  % Increase in yield over control: 12.45%
  Yield: 10.75 t/ha

## CCCCC[C@H](O)CC(=O)CCc1ccc(O)c(OC)c1 [Gingerol]
[4]; 72 hrs after application
  % Mortality at 72 Hrs.: 50.00%
[4]; [23]
  % Corrected Mortality at 72 Hrs.: 50.00%
[5]; [24]
  mortality at 1 mL or g/L: 28.6%
[5]; [25]
  mortality at 1 mL or g/L: 37.5%
[6]
  CCI Pre: 9.40
  Plant Height (cm) Pre: 4.05 cm
[6]; 120 h
  CCI 5th Day: 13.02
  Plant Height (cm) 5th Day: 5.95 cm
[6]; 240 h
  CCI 10th Day: 16
  Plant Height (cm) 10th Day: 6.65 cm
  Root Lenght % Increase over control: 37.61%
[6]; [26]
  CCI % Increase over pre on 10th Day: 70.21%
  Plant Height % Increase over pre on 10th Day: 64.20%
  Root Lenght (cm) 10th Day: 3.77 cm
  Stem Girth % Increase over pre on 10th Day: 45.00%
[7]; read-out: % Corrected Mortality at 72 Hrs.
  mortality at 1 mL or g/L: 36.8%
[7]; read-out: % Mortality at 72 Hrs.
  mortality at 1 mL or g/L: 40%
[8]
  Total No. of dead insect at 48 Hrs.: 3.75
[9]; 72 hrs after application
  % Mortality at 72 Hrs.: 37.50%
[9]; [23]
  % Corrected Mortality at 72 Hrs.: 34.21%
[10]
  CCI Pre: 12.65
  Plant Height Pre: 5.62 cm
  Stem Girth Pre: 1.35 mm
[10]; 120 h
  CCI 5th Day: 14.63
  Plant Height 5th Day: 6.45 cm
  Stem Girth 5th Day: 1.92 mm
[10]; 240 h
  CCI 10th Day: 16.87
  Plant Height 10th Day: 7.59 cm
  Root Length % Increase over control: 31.77%
  Stem Girth 10th Day: 2.31 mm
[10]; [27]
  Plant Height % Increase over pre on 10th Day: 35.05%
  Stem Girth % Increase over pre on 10th Day: 70.52%
[10]; [28]
  CCI % Increase over pre on 10th Day: 33.36%
  Root Length (cm) 10th Day: 4.38 cm
[11]
  inhibition of growth at 1 mL or g/L: 51.7%
[12]; [29]
  Antifungal Activity - Mode of action: More effective in restricting
  Antioxidant Activity - Mode of action: High antioxidant activity
  Bactericidal Activity - Mode of action: Antibacterial activity
  Insecticidal Activities - Mode of action: Exhibit repellent activity
  Nematicidal Activity - Mode of action: Suppressed root knot egg
  Virucidal Activity - Mode of action: Inhibit viral nucleic
[12]; Table 13, effect on plants, descriptive
  Phytotonic Effect: Enhanced plant
[13]; 48 h
  Total No. of dead insect at 48 Hrs.: 6.25
[13]; Dose 1 ml/gm/lit., 48 hrs
  % Corrected Mortality at 48 Hrs.: 57.14%
  % Mortality at 48 Hrs.: 62.50%
[14]; 48 hrs after application
  % Mortality at 48 Hrs.: 30.00%
[14]; [30]
  % Corrected Mortality at 48 Hrs.: 26.32%
[15]
  % Mortality at 72 Hrs.: 52.50%
[15]; corrected for water control
  % Corrected Mortality at 72 Hrs.: 52.50%
[16]; 48 h
  Total No. of dead insect at 48 Hrs.: 30.00
[16]; thrips on cotton plants, greenhouse, dose 1 ml/gm/lit. spray, 48 hrs after application
  % Mortality at 48 Hrs.: 30.00%
[16]; thrips on cotton plants, greenhouse, dose 1 ml/gm/lit. spray, 48 hrs, corrected for water control
  % Corrected Mortality at 48 Hrs.: 22.22%
[17]
  % Mortality at 48 Hrs.: 27.50%
[17]; corrected for water control
  % Corrected Mortality at 48 Hrs.: 23.68%
[18]
  % Corrected Mortality at 48 Hrs.: 29.73%
  % Mortality at 48 Hrs.: 35.00%
[19]; 48 hrs after application
  % Mortality at 48 Hrs.: 37.50%
[19]; [30]
  % Corrected Mortality at 48 Hrs.: 30.56%
[20]; [24]
  mortality at 1 mL or g/L: 58.8%
[20]; [25]
  mortality at 1 mL or g/L: 65%
[21]
  Total No. of dead insect at 72 Hrs.: 4.00
[22]
  Total No. of dead insect at 48 Hrs.: 65.00

## Copper
[2]; dose 0.25%
  % Disease reduction over Control: 71.15%
  Citrus Canker severity, 1st spray 5rd Day: 39.56
  Citrus Canker severity, 1st spray 10th day: 34.15
  Citrus Canker severity, 2nd spray 5rd day: 29.65
  Citrus Canker severity, 2nd spray 10th Day: 23.65
  % Increase in yield over control: 13.04%
  Yield (t/ha): 9.20 t/ha
  Citrus Canker severity, Pre spray: 40.52
